Measurements as given in US11234960B2, “Compositions and methods for improving mitochondrial function and treating neurodegenerative diseases and cognitive disorders” (Amazentis SA, priority 2010, dated 2022).

System: C57BL/6J mice exposed to chronic unpredictable stress
Assay: Morris water maze in chronically stressed mice
Type: in vivo
Details: 25 mg/kg/d (FIG. 34)
Method: Three weeks before the initiation of the chronic stress protocol mice were separated into four different groups. One group received standard mouse chow diet (Control), while the remaining three groups received varying doses of extract 1011, an extract derived from pomegranate juice. Low dose corresponded to an extract dose of 21 mg/kg/d of gallic acid equivalents of polyphenols (GAE PPE), the medium dose corresponded to an extract dose of 43 mg/kg/d of GAE PPE, the high dose corresponded to an extract dose of 86 mg/kg/d of GAE PPE (see Table 5).
Three weeks before the initiation of the chronic stress protocol, mice were separated into two groups. […]
The unpredictable chronic stress protocol involved exposing animals to a daily stressful situation at an unpredictable moment for 4 weeks (between 8 am and 4 pm, and randomly distributed over the 28 days). […] All animals were weighed and the state of their coat was evaluated on a regular basis (every 3-5 days). […]
Each trial started by introducing the mouse into the maze with the aid of a cup, facing the pool wall, and at one of four possible positions that were randomly balanced between trials and days. The distance between the mouse and the platform was measured at each sampling time, with 25 sampling times collected per second. […]

## O=c1oc2cc(O)ccc2c2ccc(O)cc12 [urolithin A, 3,8-Dihydroxydibenzo-α-pyrone]
  Morris water maze learning, variability of distance to platform between sequential trials: stabilization of this variability
